Patent US20160202206A1, “Matrix-Enhanced Electrochemical Detector for Pathogenic Bacteria” (NORTHEASTERN UNIVERSITY, priority 2013, published 2016)
Like-named read-outs stand apart in the source and are kept apart here.

How the values were obtained:
P. aeruginosa cultures = details: cited from earlier work
[1] = system: P. aeruginosa strain PA14; format: cell-based, Pseudomonas aeruginosa; details: for time to appearance of a pyocyanin signal: M63 minimal media, versus no added amino acid (nearly 24 hours); for effect on pyocyanin production: M63 minimal media or TSB, single amino acid added (tyrosine 3.2 mM, valine 17.6 mM); for up-regulatory effect on pyocyanin production compared with the other amino acids tested: six amino acids tested, M63 minimal media and TSB, scans over 24 hours
Experimental: All bacterial tests were completed using wild-type P. aeruginosa strain PA14. Cell cultures were routinely grown in trypticase soy broth (TSB) (BD Biosciences 211768) at 37° C. and later stored on TSB agar plates at 4° C. when not in use. All amino acids were purchased from Sigma-Aldrich (St. Louis, Mo.) and dissolved in solution using either TSB or M63 minimal salts medium (Fisher Cat. 50-751-6740) [(NH4)2SO4 (15 mM), KH2PO4 (100 mM)] supplemented with MgSO4 (1 mM) and glycerol (0.027 mM). Electrochemical measurements were performed using commercially available Zensor TE100 (EDAQ ET077) screenprinted electrodes featuring carbon working and counter electrodes. Although the Zensor TE100 electrodes include a silver paste reference, a separate 1 M KCl Ag/AgCl reference electrode (CHI111) was employed to minimize the chances of drift in reference potential during measurements lasting several hours, which can occur when the reference electrode is in direct contact with the sample solution. All electrochemical measurements were recorded using a potentiostat (CHI842C, CH Instruments).
Individual amino acids were dissolved at specific concentrations in either 10 mL of TSB or M63 media. Each solution was inoculated with a specific concentration of P. aeruginosa and incubated at 37 C. […] of each solution was removed at designated time points and loaded onto a Zensor electrode for electrochemical testing. Square-wave voltammetric scans were performed at potentials ranging from −0.4 to −0.1 V at an amplitude voltage of 0.050 V and a frequency of 15 Hz. Scans were performed for each sample three times with three replicates for each tested condition. The data was analyzed using OriginPro 9.1 (OriginLab Corporation). Baselines were created for each data set using spline interpolation with 8 base points. The resulting baseline-subtracted data set was used to determine the max currents observed from pyocyanin production.
Liquid cultures of P. aeruginosa were grown in either M63 minimal media or TSB to observe the effect of amino acid addition on the bacteria's production of pyocyanin using the methods described in Example 2. 10 μL of stock PA14 culture was loaded into 10 mL liquid cultures each containing one of six different amino acids (final concentration of 4 million cells per mL). […] Electrochemical scans were taken roughly every two hours over the course of a 24-hour period.
Tyrosine and valine were prepared at concentrations ranging from those quantified in typical cystic fibrosis infection levels (tyrosine: 0.2 mM, valine: 1.1 mM) to an 80-fold increase, which reached the solubility limit of the amino acids in TSB. The initial concentration of P. aeruginosa loaded in each sample was kept constant at roughly 4 million cells per mL and electrochemical scans were taken every two hours over the course of ten hours. FIGS. 11 A and B show scans taken after eight hours of growth in addition to a control with no amino acid additives. Again, consistent among all scans was the observance of a pyocyanin peak around −0.25 V vs. a Ag/AgCl reference. […] It is possible that valine has an inhibitory effect on pyocyanin production at such high concentrations. While such inhibition has been observed for other molecules (D. J. Musk, D. A. Banko and P. J. Hergenrother, Chem. Biol., 2005, 12, 789-796), P. aeruginosa has not been previously studied at valine concentrations that are over 100 times greater than what is typically found in a pseudomonal infection.
The next set of tests studied how varying the initial P. aeruginosa cell concentration would affect the production of pyocyanin in the presence of amino acids. TSB media was used as the growth media to which tyrosine and valine were added. Tyrosine (16 mM) and valine (17.6 mM) concentrations were held constant while varying amounts of P. aeruginosa were added into the samples (4, 20, 40, 400 million cells per mL). […]

SMILES	effect on biofilm formation (P. aeruginosa cultures)	time to appearance of a pyocyanin signal [1]	effect on pyocyanin production ([1]; 4 million cells per mL)	effect of varying amino acid concentration on amounts of pyocyanin produced after the critical time point ([1]; TSB, 4 million cells per mL)	effect of varying amino acid concentration on time needed for cells to up-regulate pyocyanin production ([1]; TSB, 4 million cells per mL)	rate of pyocyanin production, 16 mM tyrosine compared with 17.6 mM valine ([1]; TSB, 4 million cells per mL)	up-regulatory effect on pyocyanin production compared with the other amino acids tested [1]	also measured
N=C(N)NCCC[C@H](N)C(=O)O [arginine]	up-regulate biofilm formation							
N[C@@H](Cc1c[nH]cn1)C(=O)O [histidine]	up-regulate biofilm formation	significantly less time						
CC(C)C[C@H](N)C(=O)O [leucine]	up-regulate biofilm formation							
O=C(O)[C@@H]1CCCN1 [proline]	up-regulate biofilm formation							
N[C@@H](Cc1ccc(O)cc1)C(=O)O [tyrosine]	up-regulate biofilm formation	significantly less time	up-regulatory effect	significant effect	minimal effect	nearly identical	greatest up-regulatory effect in both media	time of statistically significant increase in current output ([1]; TSB, 16 mM tyrosine, 400 million cells per mL, FIG. 14 A): between four and six hours; time of statistically significant increase in current output ([1]; TSB, 4 million cells per mL, FIG. 12 A): between six and eight hours; pyocyanin produced, 16 mM tyrosine versus 17.6 mM valine ([1]; TSB, initial cell concentrations above 4 million cells per mL): more pyocyanin than 17.6 mM valine; up-regulatory effect on pyocyanin production compared with the other amino acids tested ([1]; listed as Tyrosine): largest up-regulatory effect of the six amino acids tested
CC(C)[C@H](N)C(=O)O [valine]	up-regulate biofilm formation		up-regulatory effect	significant effect	minimal effect	nearly identical	largest up-regulatory effect of the six amino acids tested	pyocyanin production when concentration raised to 88 mM ([1]; TSB, 88 mM versus 17.6 mM valine): decreased; amino acid concentration giving the largest pyocyanin concentration ([1]; TSB, 4 million cells per mL, eight hours of growth): 17.6 mM
